This assay relates to U2OS cells expressing HaloTag fusion proteins. Nature of the assay: Live-cell labeling of HaloTag fusions at different subcellular locations, Airyscan microscopy. As to conditions: 100 nM, 1 h. Type of assay: cell-based. Here is the method: Fig. 4. Evaluation of live-cell labeling of biotin–rhodamine–HaloTag ligands 13HTL–16HTL. Airyscan fluorescence microscopy images of U2OS cells expressing HaloTag fusion proteins at different subcellular locations, incubated with 100 nM 13HTL–16HTL for 1 h followed by fixation, counterstaining with Hoechst 33342 (gray) and imaging. Columns indicate different HaloTag fusion proteins: (A–D) Cell-surface-localized HaloTag–PDGFR; (E–H) Outer mitochondrial membrane-localized HaloTag–TOMM20; (I–L) Endoplasmic reticulum membrane-localized HaloTag–Sec61β; (M–P) Nucleus-localized HaloTag–histone H2B. Rows indicate different ligands: (A,E,I, and M) biotin–JF549–HaloTag ligand (13HTL; yellow); (B, F, J, and N) biotin–JF608–HaloTag ligand (14HTL; red); (C, G, K, and O) biotin–JF646–HaloTag ligand (15HTL; magenta); (D, H, L, and P) biotin–JF635–HaloTag ligand (16HTL; magenta). […]
indicated in the product information12 and from a previous publication.13 For labeling with biotin-JF-HaloTag ligands 13HTL–16HTL, cells were incubated with 100 nM or 1 µM ligand for 0.5–2 h at 37 °C. […] For quantitation of labeling intensity, ROIs were drawn surrounding individual HEK cells, and the average fluorescence ratio (JF/msGFP) from multiple cells in each condition was measured; no background subtraction was necessary.
U2OS cell culture, labeling, and fluorescence microscopy. […]

In the case of `O=C(CCCCC1SCC2NC(=O)NC21)NCCOCCOCCNC(=O)C1C[N+](=c2ccc3c(-c4cc(C(=O)NCCOCCOCCCCCCCl)ccc4C(=O)[O-])c4ccc(N5CCC5)cc4oc-3c2)C1` (stereo not shown) [13HTL, biotin–JF549–HaloTag ligand], the “labeling of HaloTag fusions (PDGFR, TOMM20, Sec61β, histone H2B)” value is “low intracellular signals, only labeling the cell-surface-localized PDGFR–HaloTag fusion”.

For the origin of these results see paper PMC12595484, “Optimizing multifunctional fluorescent ligands for intracellular labeling” (Proceedings of the National Academy of Sciences of the …, 2025).
